Results as given in patent publication US7022317B2, “Heterocyclic derivatives of 2-oxothiazolidine-4-carboxylic acid, and use as active photoprotective agents” (L'Oreal, priority 2003, dated 2006).

Test system: keratinocytes
Assay: Active photoprotection against UVA oxidative stress induced on keratinocytes (DCFH-DA fluorescent probe)
Assay type: cell-based
Settings: for % of fluorescence relative to the control cells exposed to UVA, TEST 1 / % of fluorescence relative to the control cells exposed to UVA, TEST 2: 24 hours preincubation, DCF fluorescence after UVA; for % of fluorescence relative to the control cells exposed to UVA, Mean: mean of TEST 1 and TEST 2
Experimental: The photoprotection evaluation technique is performed according to a well-known method (J. of Photochemistry and Photobiology B: Biology 57 (2000) 102–112 TOBI et al: Glutathione modulates the level of free radicals produced in UVA irradiated cells). This technique uses a fluorescent probe, a marker of intracellular global oxidative stress, 2′,7′-dichlorofluoresceine diacetate (DCFH-DA).
The use of DCFH-DA as an oxidative stress marker is based on its physicochemical properties. It is a nonionic apolar molecular capable of diffusing across cell membranes. Once inside the cell, DCFH-DA is hydrolysed by intracellular esterases to a non-fluorescent compound: DCFH or […]. In the presence of activated oxygen species, DCFH is rapidly oxidized to a highly fluorescent compound: DCF or 2,7-dichlorofluoresceine.
At confluence, the keratinocytes are incubated in the presence of a compound of formula (I) for 24 hours at 37° C., 5% CO2, in the culture medium, according to a dose effect (3 concentrations).
The keratinocytes, pretreated with a compound of formula (I), are rinsed and then incubated in the presence of DCFH-DA in the dark.
After this incubation, the DCFH-DA solution is removed and the cells are then exposed to UVA.
Comment: a non-exposed control plate is stored in the dark, at room temperature.
The fluorescence of the DCF is evaluated immediately after the exposure to UVA, via spectrofluorimetry (excitation: 480 nm; emission: 530 nm).
The results are expressed as % of fluorescence relative to the control cells exposed to UVA: […]

## O=C1NCC(=O)N2C(=O)SCC12 (stereo not shown) [Compound 2, Tetrahydrothiazolo[3,4-a]pyrazine-3,5,8-trione]
Compound at 0.05 mM
  % of fluorescence relative to the control cells exposed to UVA, TEST 1: 98%
  % of fluorescence relative to the control cells exposed to UVA, TEST 2: 86%
  % of fluorescence relative to the control cells exposed to UVA, Mean: 92%
Compound at 0.5 mM
  % of fluorescence relative to the control cells exposed to UVA, TEST 1: 79%
  % of fluorescence relative to the control cells exposed to UVA, TEST 2: 74%
  % of fluorescence relative to the control cells exposed to UVA, Mean: 76.5%
Compound at 5 mM
  % of fluorescence relative to the control cells exposed to UVA, TEST 1: 69%
  % of fluorescence relative to the control cells exposed to UVA, TEST 2: 58%
  % of fluorescence relative to the control cells exposed to UVA, Mean: 63.5%
Compound at 5 mM, UVA oxidative stress
  reduction of fluorescence (optimum efficacy): about 36%
